Drawing on ChEMBL document CHEMBL1140360, “Synthesis and biological activity of 3,4-dihydroquinazolines for selective T-type Ca2+ channel blockers” (Bioorg Med Chem Lett, 2005), this text covers Selectivity, inhibition and IC50 for 12 compounds.

What all share (assay type): cell-based
One experiment relates to HEK293. In words: Selectivity for T-type and N-type [Ca2+] channels expressed in HEK293 cells at 10 uM. The note with it: Homo sapiens.
The target of experiment [1] is Voltage-dependent N-type calcium channel subunit alpha-1B (Homo sapiens) (UniProt Q00975). Description: Percent inhibition of N-type [Ca2+] channel (Alpha-1B) expressed in HEK293 cells at 10 uM.
Experiment [2] has as its target T1, Voltage-dependent T-type calcium channel subunit alpha-1G (Homo sapiens, UniProt O43497). Description: Percent inhibition of T-type [Ca2+] channel (alpha1G) expressed in HEK293 cells at 10 uM.
Experiment [3] has as its target Voltage-dependent T-type calcium channel subunit alpha-1H (Homo sapiens) (UniProt O95180). In words: Percent inhibition of T-type [Ca2+] channel (alpha1H) stably expressed in Xenopus oocytes at 100 uM. The note with it: Oocyte.
In experiment [4] the target is T1, Voltage-dependent T-type calcium channel subunit alpha-1G. Description: Inhibition of T-type [Ca2+] channel (alpha1G) expressed in HEK293 cells.
Experiment [5] concerns the target Voltage-dependent N-type calcium channel subunit alpha-1B (Homo sapiens) (UniProt Q00975). In words: Percent inhibition of N-type [Ca2+] channel (Alpha-1B) expressed in HEK293 cells at 10 uM; No blocking.

T1 sequence (O43497 whole entry): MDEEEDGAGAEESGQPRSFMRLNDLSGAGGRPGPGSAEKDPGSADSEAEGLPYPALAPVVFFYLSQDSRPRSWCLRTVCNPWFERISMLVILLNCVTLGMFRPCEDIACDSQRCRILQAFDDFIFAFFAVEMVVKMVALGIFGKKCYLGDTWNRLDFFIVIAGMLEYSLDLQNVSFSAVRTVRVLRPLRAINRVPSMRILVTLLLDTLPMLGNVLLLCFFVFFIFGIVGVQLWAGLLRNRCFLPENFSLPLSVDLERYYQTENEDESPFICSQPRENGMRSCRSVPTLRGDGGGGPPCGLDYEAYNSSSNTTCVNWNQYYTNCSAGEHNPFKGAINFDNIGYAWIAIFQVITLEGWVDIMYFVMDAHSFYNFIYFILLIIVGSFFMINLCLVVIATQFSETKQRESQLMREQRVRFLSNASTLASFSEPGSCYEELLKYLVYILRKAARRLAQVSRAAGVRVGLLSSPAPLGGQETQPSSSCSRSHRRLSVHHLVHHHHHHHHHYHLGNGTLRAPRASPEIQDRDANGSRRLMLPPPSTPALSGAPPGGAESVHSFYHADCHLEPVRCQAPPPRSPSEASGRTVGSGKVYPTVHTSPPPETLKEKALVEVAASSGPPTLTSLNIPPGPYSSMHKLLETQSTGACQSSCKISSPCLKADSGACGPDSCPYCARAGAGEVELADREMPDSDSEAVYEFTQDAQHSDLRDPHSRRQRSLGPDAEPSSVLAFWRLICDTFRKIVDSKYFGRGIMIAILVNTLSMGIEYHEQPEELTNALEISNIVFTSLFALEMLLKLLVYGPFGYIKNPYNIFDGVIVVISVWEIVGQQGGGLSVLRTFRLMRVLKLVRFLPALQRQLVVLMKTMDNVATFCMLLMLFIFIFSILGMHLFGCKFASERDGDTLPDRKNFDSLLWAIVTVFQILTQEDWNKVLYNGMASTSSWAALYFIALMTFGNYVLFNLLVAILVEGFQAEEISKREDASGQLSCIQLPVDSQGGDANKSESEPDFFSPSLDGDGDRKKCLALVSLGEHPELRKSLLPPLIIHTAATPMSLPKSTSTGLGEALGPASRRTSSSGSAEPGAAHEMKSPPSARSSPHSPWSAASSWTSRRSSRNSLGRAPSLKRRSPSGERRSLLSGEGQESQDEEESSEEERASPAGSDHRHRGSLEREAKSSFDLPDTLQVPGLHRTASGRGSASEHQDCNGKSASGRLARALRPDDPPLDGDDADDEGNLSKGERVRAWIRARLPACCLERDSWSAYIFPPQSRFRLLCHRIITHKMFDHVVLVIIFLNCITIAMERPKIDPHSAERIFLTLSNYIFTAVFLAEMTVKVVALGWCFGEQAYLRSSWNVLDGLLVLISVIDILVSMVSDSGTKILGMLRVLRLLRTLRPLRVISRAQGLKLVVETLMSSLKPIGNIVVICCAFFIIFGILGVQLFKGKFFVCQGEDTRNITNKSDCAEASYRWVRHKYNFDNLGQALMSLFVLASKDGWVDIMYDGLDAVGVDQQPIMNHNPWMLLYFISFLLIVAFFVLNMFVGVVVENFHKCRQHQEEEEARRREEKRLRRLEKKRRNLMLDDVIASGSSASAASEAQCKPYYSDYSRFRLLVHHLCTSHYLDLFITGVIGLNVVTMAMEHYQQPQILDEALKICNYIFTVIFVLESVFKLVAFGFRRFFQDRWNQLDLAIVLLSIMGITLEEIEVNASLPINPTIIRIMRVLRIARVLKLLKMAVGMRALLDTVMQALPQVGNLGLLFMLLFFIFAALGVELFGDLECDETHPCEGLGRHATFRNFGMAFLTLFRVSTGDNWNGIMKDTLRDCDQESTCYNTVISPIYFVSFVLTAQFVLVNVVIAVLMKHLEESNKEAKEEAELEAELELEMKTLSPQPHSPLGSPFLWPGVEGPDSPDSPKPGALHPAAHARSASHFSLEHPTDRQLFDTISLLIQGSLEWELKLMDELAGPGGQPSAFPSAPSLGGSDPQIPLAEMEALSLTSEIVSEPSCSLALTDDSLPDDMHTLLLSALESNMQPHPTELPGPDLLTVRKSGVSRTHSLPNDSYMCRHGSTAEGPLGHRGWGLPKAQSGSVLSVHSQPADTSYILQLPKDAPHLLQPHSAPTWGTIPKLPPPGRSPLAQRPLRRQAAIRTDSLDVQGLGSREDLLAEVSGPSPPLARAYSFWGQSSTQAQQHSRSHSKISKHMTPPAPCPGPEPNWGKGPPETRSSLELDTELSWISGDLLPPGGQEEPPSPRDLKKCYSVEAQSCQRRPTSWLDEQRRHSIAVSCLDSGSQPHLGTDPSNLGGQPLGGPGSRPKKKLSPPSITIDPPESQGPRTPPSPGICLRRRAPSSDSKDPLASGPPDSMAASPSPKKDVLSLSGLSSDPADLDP
Chain of Voltage-dependent T-type calcium channel subunit alpha-1H (Homo sapiens) (O95180 whole entry): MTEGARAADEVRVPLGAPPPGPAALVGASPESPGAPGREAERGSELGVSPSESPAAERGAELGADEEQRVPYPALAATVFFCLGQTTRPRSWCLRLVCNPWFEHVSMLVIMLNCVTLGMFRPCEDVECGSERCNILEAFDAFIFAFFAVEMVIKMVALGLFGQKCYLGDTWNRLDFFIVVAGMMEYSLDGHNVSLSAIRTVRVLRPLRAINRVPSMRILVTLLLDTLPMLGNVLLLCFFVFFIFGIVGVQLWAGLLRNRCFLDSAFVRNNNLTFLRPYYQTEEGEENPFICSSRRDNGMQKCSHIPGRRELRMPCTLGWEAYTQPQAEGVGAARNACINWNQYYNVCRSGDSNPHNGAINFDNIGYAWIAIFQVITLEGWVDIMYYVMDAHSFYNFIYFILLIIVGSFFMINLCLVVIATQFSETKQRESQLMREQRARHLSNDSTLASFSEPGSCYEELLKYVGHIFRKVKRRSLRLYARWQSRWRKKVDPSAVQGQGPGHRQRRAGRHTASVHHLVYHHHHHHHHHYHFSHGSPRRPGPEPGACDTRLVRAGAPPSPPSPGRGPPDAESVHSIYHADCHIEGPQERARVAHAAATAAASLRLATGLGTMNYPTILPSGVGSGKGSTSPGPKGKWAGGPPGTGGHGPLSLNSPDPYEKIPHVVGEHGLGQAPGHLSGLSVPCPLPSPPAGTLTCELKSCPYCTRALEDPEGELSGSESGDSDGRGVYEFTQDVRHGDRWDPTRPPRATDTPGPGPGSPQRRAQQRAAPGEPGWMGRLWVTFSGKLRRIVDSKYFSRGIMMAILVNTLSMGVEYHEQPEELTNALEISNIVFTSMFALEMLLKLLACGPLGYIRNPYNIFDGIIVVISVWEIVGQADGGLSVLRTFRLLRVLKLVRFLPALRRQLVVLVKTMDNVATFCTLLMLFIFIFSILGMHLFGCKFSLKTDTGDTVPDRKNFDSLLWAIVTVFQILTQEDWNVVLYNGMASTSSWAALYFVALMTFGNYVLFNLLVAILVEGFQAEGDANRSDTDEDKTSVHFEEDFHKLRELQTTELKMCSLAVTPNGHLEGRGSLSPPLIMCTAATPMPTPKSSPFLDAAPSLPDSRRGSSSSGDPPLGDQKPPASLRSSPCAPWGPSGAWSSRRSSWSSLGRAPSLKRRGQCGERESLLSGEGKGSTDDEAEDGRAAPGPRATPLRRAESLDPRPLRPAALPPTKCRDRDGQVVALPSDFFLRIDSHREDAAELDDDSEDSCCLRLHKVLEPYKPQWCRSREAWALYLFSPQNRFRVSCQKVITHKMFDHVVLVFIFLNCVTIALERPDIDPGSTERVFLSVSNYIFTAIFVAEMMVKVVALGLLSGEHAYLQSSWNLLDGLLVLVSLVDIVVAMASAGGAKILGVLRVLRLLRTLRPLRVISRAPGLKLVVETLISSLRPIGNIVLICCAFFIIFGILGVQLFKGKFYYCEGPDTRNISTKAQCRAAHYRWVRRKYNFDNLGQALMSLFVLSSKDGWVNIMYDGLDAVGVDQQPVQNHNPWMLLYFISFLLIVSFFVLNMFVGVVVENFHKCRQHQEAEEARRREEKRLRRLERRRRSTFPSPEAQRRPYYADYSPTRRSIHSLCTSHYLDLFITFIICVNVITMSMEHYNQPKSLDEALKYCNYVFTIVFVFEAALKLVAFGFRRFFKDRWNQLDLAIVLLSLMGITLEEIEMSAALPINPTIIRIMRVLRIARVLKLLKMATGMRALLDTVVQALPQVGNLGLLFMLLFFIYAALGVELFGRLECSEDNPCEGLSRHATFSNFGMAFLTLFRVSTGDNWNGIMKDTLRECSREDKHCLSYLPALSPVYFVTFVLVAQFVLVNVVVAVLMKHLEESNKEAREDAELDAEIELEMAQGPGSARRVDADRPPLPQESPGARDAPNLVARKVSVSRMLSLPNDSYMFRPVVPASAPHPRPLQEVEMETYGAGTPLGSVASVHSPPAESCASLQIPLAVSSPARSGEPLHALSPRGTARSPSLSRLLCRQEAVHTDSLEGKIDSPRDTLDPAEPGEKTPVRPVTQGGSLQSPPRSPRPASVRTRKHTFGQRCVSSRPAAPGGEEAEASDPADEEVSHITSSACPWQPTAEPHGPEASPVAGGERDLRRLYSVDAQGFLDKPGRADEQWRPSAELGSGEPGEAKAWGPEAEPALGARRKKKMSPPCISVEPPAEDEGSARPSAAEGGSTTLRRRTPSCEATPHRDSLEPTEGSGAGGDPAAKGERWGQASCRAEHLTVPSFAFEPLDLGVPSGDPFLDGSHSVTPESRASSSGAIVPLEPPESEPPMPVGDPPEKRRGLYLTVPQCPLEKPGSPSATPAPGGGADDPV

As for `COC(=O)CC1c2ccccc2N=C(NCCCCCNC(=O)OC(C)(C)C)N1c1ccc(-c2ccccc2)cc1` (configuration not stated), the Selectivity with HEK293 came out at 0.9. Further, the inhibition was determined as 98.6% in experiment [1], 86.5% in experiment [2] and 92.2% in experiment [3]. Moreover, the half-maximal inhibitory concentration (IC50) in experiment [4] worked out at 680 nM.

On to `O=C(CC1c2ccccc2N=C(N2CCCCC2)N1c1ccccc1)NCc1ccc(NS(=O)(=O)c2ccc(F)cc2)cc1` (configuration not stated), for which, in experiment [4], the IC50 was 110 nM.

With `CC(C)(C)OC(=O)NCCCCCNC1=Nc2ccccc2C(CC(=O)NCc2ccccc2)N1c1ccc(-c2ccccc2)cc1` (configuration not stated), the Selectivity in the experiment with HEK293 turned out to be 5.3. Further, the inhibition in experiment [1] came out at 16.6%; in experiment [2] it was 88.3%; in experiment [3], 84.2%. In experiment [4], the IC50 is 160 nM.

Consider `NCCCCCNC1=Nc2ccccc2C(CC(=O)NCc2ccccc2)N1c1ccc(-c2ccccc2)cc1` (configuration not stated), for which, in the experiment with HEK293, the Selectivity was determined as 10.1. The inhibition in experiment [1] worked out at 8.3%; in experiment [2], 83.8%; in experiment [3], 80.1%. Besides, in experiment [4], the IC50 is 130 nM.

`COC(=O)CC1c2ccccc2N=C(Nc2ccc(-c3ccccc3)cc2)N1CCCCCNC(=O)OC(C)(C)C` (configuration not stated) came in with a Selectivity in the experiment on HEK293 of 0.9. Also, the figures for the inhibition in experiment [1], in experiment [2] and in experiment [3] were 94.9%, 88.5% and 96.5%, respectively. Also, the IC50 in experiment [4] is 370 nM.

In turn, `NCCCCCN1C(Nc2ccc(-c3ccccc3)cc2)=Nc2ccccc2C1CC(=O)NCc1ccccc1` (configuration not stated) gave a Selectivity in the experiment with HEK293 of 6. The inhibition in experiment [1] was found to be 15.2%; in experiment [2] it was 91.8%; in experiment [3], 97%. Moreover, in experiment [4], the concentration for half-maximal inhibition (IC50) was determined as 140 nM.

Consider `COCC(=O)O[C@]1(CCN(C)CCCc2nc3ccccc3[nH]2)CCc2cc(F)ccc2[C@@H]1C(C)C`, for which the inhibition in experiment [1] was 67.6%.

On to `COC(=O)CC1c2ccccc2N=C(Nc2ccc(-c3ccccc3)cc2)N1CCCCCN` (configuration not stated), for which the Selectivity in the experiment on HEK293 stood at 11.2. In addition, the inhibition in experiment [1] came out at 7.5%; in experiment [2], 84.1%; in experiment [3], 94.6%. In addition, the IC50 in experiment [4] is 300 nM.

On to `O=C(CC1c2ccccc2N=C(N2CCCCC2)N1c1ccccc1)NCc1ccccc1` (configuration not stated), for which the concentration for half-maximal inhibition (IC50) in experiment [4] was 1160 nM.

With `CC(C)(C)OC(=O)NCCCCCN1C(Nc2ccc(-c3ccccc3)cc2)=Nc2ccccc2C1CC(=O)NCc1ccccc1` (configuration not stated), in the experiment on HEK293, the Selectivity worked out at 2.9. Moreover, the figures for the inhibition in experiment [1], in experiment [2] and in experiment [3] were 30.1%, 88.5% and 91.2%, respectively. Further, the IC50 in experiment [4] turned out to be 170 nM.

In the case of `COC(=O)CC1c2ccccc2N=C(NCCCCCN)N1c1ccc(-c2ccccc2)cc1` (configuration not stated), the inhibition in experiment [2] was 82.5%; in experiment [3], 97%; in experiment [5], under 1%.

Take `Cc1ccc(S(=O)(=O)Nc2ccc(CNC(=O)CC3c4ccccc4N=C(N4CCCCC4)N3c3ccccc3)cc2)cc1` (configuration not stated): the IC50 in experiment [4] is 170 nM.

As a reminder, the inhibition is how much of the control response was suppressed. Broadly, the IC50 is the concentration that inhibits the measured activity by half.
